Assay results taken from patent US11702419B2, “Heterocyclic compound and use thereof” (Takeda Pharmaceutical Company Limited, priority 2018, dated 2023).

Target: T1, NMDA receptor composed of four subunits consisting of two sets of heterodimers of NR1 and NR2B (human GRIN1 and GRIN2B-expressing HEK293 cells) (Homo sapiens, UniProt Q13224)
T1 construct: host or cells: HEK293 (tetracycline-inducible expression)
Assay: NR2B Ca2+ influx assay
Type: cell-based
Conditions: 10 μM compound, glutamic acid/glycine-induced Ca2+ influx, FLIPR, read-out: inhibitory rate (10 μM compound concentration)
Procedure: In order to confirm an “antagonistic action on an NMDA receptor containing the NR2B subunit” which the compound of the present invention has, inhibitory effect on the NMDA receptor activation was evaluated using “NMDA receptor composed of four subunits consisting of two sets of heterodimers of NR1 and NR2B”-expressing human fetal renal cells, specifically human glutamate ionotropic receptor NMDA type subunit 1 (GRIN1) and human glutamate ionotropic receptor NMDA type subunit 2B (GRIN2B)-expressing HEK293 cells.
As an index of the NMDA receptor activation, intracellular calcium ion (Ca^2+) influx caused by bonding of glycine and glutamate to NR1 and NR2B respectively was used. HEK293 cells were purchased from ChanTest. The cells were cultured in a DMEM/F-12 (COSMO BIO, 10-092-CM) medium containing 10% FBS (fetal bovine serum, AusGene), 100 units/mL penicillin, 100 μg/mL streptomycin, 500 μg/mL neomycin, 100 μg/mL Zeocin and 5 μg/mL Blasticidin at 37° C., 5% CO2. The cells were detached from flask with trypsin the day before the assay, suspended in a seeding medium (DMEM (Invitrogen, 31053) containing 10% FBS, 100 units/mL penicillin and 100 μg/mL streptomycin) at 8×10^5 cells/mL, seeded by 25 μL per well in a 384-well plate (Falcon, 356663) at 20000 cells/well, and cultured overnight in an incubator. On the day of the assay, tetracycline (Wako Pure Chemical Industries, 209-16561) was diluted with the seeding medium at 2 μg/mL, and the dilution was added at 25 μL/well to the plate seeded with the cells, and the cells were cultured for 2 hr in an incubator. Thereafter, the medium was removed, and the cells were washed with 50 μL/well of assay buffer (137 mM NaCl, 4 mM KCl, 1.8 mM CaCl2, 10 mM HEPES (pH 7.2), 10 mM Glucose, and 0.1% BSA). Then, a loading buffer (assay buffer containing 2.5 μM Fluo-4AM, 2 mM Amaranth and 1 mM Tartrazine) was added thereto at 25 μL/well, and loading was performed in the incubator for 30 min, and then at room temperature for 15 min. The test compound was diluted with the above-mentioned assay buffer so as to adjust the concentration to 30 μM, the obtained solution (25 μL) was added thereto (the final concentration 10 μM), and the cells were stood for 15 min at room temperature. Using FLIPR (Molecular Devices), 25 μL of an assay buffer containing 30 μM glutamic acid and 30 μM glycine was added thereto, and the fluorescence signal was measured every 3 seconds for 5 min. The relative activity value (inhibitory rate) was calculated when the cumulative total value of the fluorescence value of a well added with a buffer free of glutamic acid and glycine, relative to the cumulative total value of the fluorescence value of each well are regarded as 100% inhibition. The obtained value was evaluated as an inhibitory activity.

T1 sequence (Q13224 27-1484, other chains not shown): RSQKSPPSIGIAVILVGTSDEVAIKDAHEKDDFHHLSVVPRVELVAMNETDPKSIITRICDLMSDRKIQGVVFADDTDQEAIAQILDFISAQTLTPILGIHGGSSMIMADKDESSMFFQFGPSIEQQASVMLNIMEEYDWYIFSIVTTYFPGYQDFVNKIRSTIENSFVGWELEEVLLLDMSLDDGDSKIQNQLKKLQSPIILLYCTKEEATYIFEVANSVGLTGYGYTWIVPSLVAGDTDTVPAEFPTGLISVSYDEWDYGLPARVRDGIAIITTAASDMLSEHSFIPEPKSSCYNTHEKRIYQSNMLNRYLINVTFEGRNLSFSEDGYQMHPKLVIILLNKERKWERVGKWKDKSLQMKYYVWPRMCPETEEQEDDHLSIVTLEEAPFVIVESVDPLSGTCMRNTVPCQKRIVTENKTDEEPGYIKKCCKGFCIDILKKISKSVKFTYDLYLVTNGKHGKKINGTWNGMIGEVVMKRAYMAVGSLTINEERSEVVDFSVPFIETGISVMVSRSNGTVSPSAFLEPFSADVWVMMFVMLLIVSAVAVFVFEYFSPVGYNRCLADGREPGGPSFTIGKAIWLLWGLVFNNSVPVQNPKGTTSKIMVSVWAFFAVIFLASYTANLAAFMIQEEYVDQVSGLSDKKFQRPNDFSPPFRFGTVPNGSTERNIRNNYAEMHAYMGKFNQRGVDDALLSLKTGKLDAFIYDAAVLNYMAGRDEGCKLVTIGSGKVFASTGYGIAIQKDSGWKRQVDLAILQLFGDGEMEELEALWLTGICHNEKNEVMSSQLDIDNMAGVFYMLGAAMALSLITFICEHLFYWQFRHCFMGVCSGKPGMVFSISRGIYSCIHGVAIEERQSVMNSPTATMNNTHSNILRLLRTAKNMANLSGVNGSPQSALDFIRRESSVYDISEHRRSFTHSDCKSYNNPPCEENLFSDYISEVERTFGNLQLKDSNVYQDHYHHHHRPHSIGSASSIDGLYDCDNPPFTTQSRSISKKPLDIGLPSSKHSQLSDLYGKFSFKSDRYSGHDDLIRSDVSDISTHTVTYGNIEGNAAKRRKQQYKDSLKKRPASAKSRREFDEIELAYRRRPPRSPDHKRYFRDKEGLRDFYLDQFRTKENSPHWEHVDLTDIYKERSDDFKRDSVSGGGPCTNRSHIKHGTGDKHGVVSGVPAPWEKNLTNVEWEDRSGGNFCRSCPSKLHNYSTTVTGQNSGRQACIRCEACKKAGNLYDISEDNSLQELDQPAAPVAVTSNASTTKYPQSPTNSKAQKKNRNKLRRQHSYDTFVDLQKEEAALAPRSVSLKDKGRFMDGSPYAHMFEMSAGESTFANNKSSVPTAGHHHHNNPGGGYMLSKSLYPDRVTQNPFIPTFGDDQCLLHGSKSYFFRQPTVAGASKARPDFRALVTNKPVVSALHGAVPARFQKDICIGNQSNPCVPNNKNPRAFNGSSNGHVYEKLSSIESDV

Row | inhibition at 10 µM [%] | Structure (SMILES)
1 | 100 | Cc1nn2ncc(CNC(=O)c3cnc(OC(F)F)c(F)c3)c2n1C [Example 70, 6-(difluoromethoxy)-N-[(1,2-dimethyl-1H-pyrazolo[1,5-b][1,2,4]triazol-7-yl)methyl]-5-fluoropyridine-3-carboxamide]
2 | 96 | O=C(NCc1cnn2ccn(CC(F)F)c12)c1ccc(OC(F)(F)F)c(F)c1 [Example 81, N-{[1-(2,2-difluoroethyl)-1H-imidazo[1,2-b]pyrazol-7-yl]methyl}-3-fluoro-4-(trifluoromethoxy)benzamide]
3 | 98 | O=C(NCc1cnn2ncccc12)c1ccc(OC(F)F)c(F)c1 [Example 15, 4-(difluoromethoxy)-3-fluoro-N-(pyrazolo[1,5-b]pyridazin-3-ylmethyl)benzamide]
4 | 84 | Cc1nn2cnccc2c1CNC(=O)c1cnc(OC(F)F)c(F)c1 [Example 55, 6-(difluoromethoxy)-5-fluoro-N-((2-methylpyrazolo[1,5-c]pyrimidin-3-yl)methyl)nicotinamide]
5 | 98 | Cn1ccn2ncc(CNC(=O)c3ccc(C(F)(F)F)c(F)c3)c12 [Example 67, 3-fluoro-N-((1-methyl-1H-imidazo[1,2-b]pyrazol-7-yl)methyl)-4-(trifluoromethyl)benzamide]
6 | 98 | Cc1ccc2c(CNC(=O)c3ccc(OC(F)(F)F)c(F)c3)cnn2n1 [Example 11, 3-fluoro-N-((6-methylpyrazolo[1,5-b]pyridazin-3-yl)methyl)-4-(trifluoromethoxy)benzamide]
7 | 96 | O=C(NCc1nnn2ncccc12)c1ccc(OC(F)(F)F)cc1 [Example 19, N-([1,2,3]triazolo[1,5-b]pyridazin-3-ylmethyl)-4-(trifluoromethoxy)benzamide]
8 | 94 | O=C(NCc1nnn2ccncc12)c1ccc(OC(F)(F)F)c(F)c1 [Example 42, 3-fluoro-N-([1,2,3]triazolo[1,5-a]pyrazin-3-ylmethyl)-4-(trifluoromethoxy)benzamide]
9 | 85 | COc1ncc(C(=O)NCc2cnn3ncccc23)cc1F [Example 4, 5-fluoro-6-methoxy-N-(pyrazolo[1,5-b]pyridazin-3-ylmethyl)nicotinamide]
10 | 93 | O=C(NCc1cnn2nccnc12)c1ccc(OC(F)(F)F)c(F)c1 [Example 47, 3-fluoro-N-(pyrazolo[1,5-b][1,2,4]triazin-8-ylmethyl)-4-(trifluoromethoxy)benzamide]
11 | 95 | Cc1nn2ncc(CNC(=O)c3cnc(OC(F)F)c(Cl)c3)c2n1C [Example 72, 5-chloro-6-(difluoromethoxy)-N-[(1,2-dimethyl-1H-pyrazolo[1,5-b][1,2,4]triazol-7-yl)methyl]pyridine-3-carboxamide]
12 | 94 | O=C(NCc1nnn2cc(F)ccc12)c1ccc(OC(F)(F)F)cc1 [Example 1, N-((6-fluoro[1,2,3]triazolo[1,5-a]pyridin-3-yl)methyl)-4-(trifluoromethoxy)benzamide]
13 | 78 | CCOc1nn2ncccc2c1CNC(=O)c1ccc(OC(F)F)c(F)c1 [Example 25, 4-(difluoromethoxy)-N-((2-ethoxypyrazolo[1,5-b]pyridazin-3-yl)methyl)-3-fluorobenzamide]
14 | 83 | O=C(NCc1nnn2ccccc12)c1ccc(C(F)(F)F)c(F)c1 [Example 68, 3-fluoro-N-([1,2,3]triazolo[1,5-a]pyridin-3-ylmethyl)-4-(trifluoromethyl)benzamide]
15 | 84 | Cc1ccnn2nnc(CNC(=O)c3cnc(OC(F)F)c(F)c3)c12 [Example 53, 6-(difluoromethoxy)-5-fluoro-N-((4-methyl[1,2,3]triazolo[1,5-b]pyridazin-3-yl)methyl)nicotinamide]
16 | 94 | O=C(NCc1nnn2ccccc12)c1ccc(OC(F)F)c(F)c1 [Example 35, 4-(difluoromethoxy)-3-fluoro-N-([1,2,3]triazolo[1,5-a]pyridin-3-ylmethyl)benzamide]

Row | inhibition at 10 µM [%] | Structure (SMILES)
17 | 54 | Cc1cccn2nnc(CNC(=O)c3ccc(OC(F)(F)F)cc3)c12 [Example 2, N-((4-methyl[1,2,3]triazolo[1,5-a]pyridin-3-yl)methyl)-4-(trifluoromethoxy)benzamide]
18 | 87 | COc1ncc(C(=O)NCc2cnn3ncccc23)cc1Cl [Example 9, 5-chloro-6-methoxy-N-(pyrazolo[1,5-b]pyridazin-3-ylmethyl)nicotinamide]
19 | 92 | O=C(NCc1nnn2ccccc12)c1ccc(OC(F)(F)F)cc1 [Example 69, N-([1,2,3]triazolo[1,5-a]pyridin-3-ylmethyl)-4-(trifluoromethoxy)benzamide]
20 | 95 | O=C(NCc1nnn2ncccc12)c1cnc(OC(F)F)c(F)c1 [Example 23, 6-(difluoromethoxy)-5-fluoro-N-([1,2,3]triazolo[1,5-b]pyridazin-3-ylmethyl)nicotinamide]
21 | 90 | Cc1nn2ncc(CNC(=O)c3cnc(OC(F)F)c(F)c3)c2n1C(F)F [Example 74, 6-(difluoromethoxy)-N-{[1-(difluoromethyl)-2-methyl-1H-pyrazolo[1,5-b][1,2,4]triazol-7-yl]methyl}-5-fluoropyridine-3-carboxamide]
22 | 98 | Cn1ccn2ncc(CNC(=O)c3ccc(OC(F)(F)F)cc3)c12 [Example 66, N-((1-methyl-1H-imidazo[1,2-b]pyrazol-7-yl)methyl)-4-(trifluoromethoxy)benzamide]
23 | 97 | Cc1cnn2ncc(CNC(=O)c3ccc(OC(F)(F)F)c(F)c3)c2c1 [Example 21, 3-fluoro-N-((5-methylpyrazolo[1,5-b]pyridazin-3-yl)methyl)-4-(trifluoromethoxy)benzamide]
24 | 88 | COc1ncc(C(=O)NCc2cnn3ccn(C)c23)cc1F [Example 61, 5-fluoro-6-methoxy-N-((1-methyl-1H-imidazo[1,2-b]pyrazol-7-yl)methyl)nicotinamide]
25 | 97 | Cc1nn2ncc(CNC(=O)c3ccc(OC(F)(F)F)c(F)c3)c2n1C [Example 71, N-[(1,2-dimethyl-1H-pyrazolo[1,5-b][1,2,4]triazol-7-yl)methyl]-3-fluoro-4-(trifluoromethoxy)benzamide]
26 | 97 | Cc1cn2ncc(CNC(=O)c3cnc(OC(F)F)c(F)c3)c2n1C [Example 85, 6-(difluoromethoxy)-N-[(1,2-dimethyl-1H-imidazo[1,2-b]pyrazol-7-yl)methyl]-5-fluoropyridine-3-carboxamide]
27 | 90 | CCc1nn2ncccc2c1CNC(=O)c1cnc(OC(F)F)c(F)c1 [Example 26, 6-(difluoromethoxy)-N-((2-ethylpyrazolo[1,5-b]pyridazin-3-yl)methyl)-5-fluoronicotinamide]
28 | 87 | O=C(NCc1cnn2ccn(C(F)F)c12)c1cnc(OC(F)F)c(F)c1 [Example 76, 6-(difluoromethoxy)-N-{[1-(difluoromethyl)-1H-imidazo[1,2-b]pyrazol-7-yl]methyl}-5-fluoropyridine-3-carboxamide]
29 | 81 | Cc1nn2ncc(CNC(=O)c3ccc(OC(F)(F)F)c(F)c3)c2n1CC(F)F [Example 78, N-{[1-(2,2-difluoroethyl)-2-methyl-1H-pyrazolo[1,5-b][1,2,4]triazol-7-yl]methyl}-3-fluoro-4-(trifluoromethoxy)benzamide]
30 | 95 | O=C(NCc1c(C(F)F)nn2ncccc12)c1cnc(OC(F)F)c(F)c1 [Example 43, 6-(difluoromethoxy)-N-((2-(difluoromethyl)pyrazolo[1,5-b]pyridazin-3-yl)methyl)-5-fluoronicotinamide]
31 | 94 | CCn1ccn2ncc(CNC(=O)c3cnc(OC(F)F)c(F)c3)c12 [Example 83, 6-(difluoromethoxy)-N-[(1-ethyl-1H-imidazo[1,2-b]pyrazol-7-yl)methyl]-5-fluoropyridine-3-carboxamide]
32 | 97 | Cc1cnn2nnc(CNC(=O)c3cnc(OC(F)F)c(F)c3)c2c1 [Example 50, 6-(difluoromethoxy)-5-fluoro-N-((5-methyl[1,2,3]triazolo[1,5-b]pyridazin-3-yl)methyl)nicotinamide]
